Results taken from patent US8143393B2, “Substituted 4-amino-pyrrolotriazine derivatives useful for treating hyper-proliferative disorders and diseases associated with angiogenesis” (Bayer HealthCare LLC, priority 2005, dated 2012).

Assays:
FGFR-1 = molecular target: T1, FGFR-1 (Homo sapiens, UniProt P11362); assay: FGFR-1 TR-FRET biochemical assay; conditions: 0.6 uM ATP, 5 nM FGFR1-GST; bounds given in nM
T1 construct: GST; made in house
How it was run: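 FGFR1-GST (5 nM) was incubated with poly GT-biotin (25 nM) and 0.6 uM ATP in HEPES pH 7.5/MgCl2 with 1% DMSO for 1 h at room temperature. Phosphorylation was read by LANCE TR-FRET (Eu-anti-pTyr/SA-APC, 665/615 ratio). Percent inhibition was background-corrected against no-ATP wells, with final compound concentrations of 10 μM–0.128 nM.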

MDA-MB-231 cells = assay: Tumor cell proliferation (MDA-MB-231 proliferation assay); type: cell-based; conditions: Homo sapiens, MDA-MB-231, 72 h, Alamar Blue
Protocol: (§1) Human tumor cells (e.g., HCT116 or MDA-MB-231 cells), were seeded in a Costar 96-well plate at 3.0×10^3 cells/well and grown in 150 μl of RPMI complete media (Invitrogen Corporation, Grand Island, N.Y.) containing 10% fetal bovine serum (Hyclone, Logan, Utah) at 37° C. for 16 h in an incubator with 5% CO2. To each well, 50 μl of additional growth media containing 40 μM to 18 nM concentrations of compound with 0.4% DMSO was added. Cells were grown for another 72 h at 37° C. with 5% CO2. 20 μl of Alamar Blue (Trek Diagnostic Systems, Inc., Cleveland, Ohio) reagent was added to each well and incubated for 3 h at 37° C. Plates were read in a SpectraMax Gemini (Molecular Devices, CA) with 544 nm excitation and 590 nm emission wavelength. IC50 values were determined by linear regression analysis of log drug concentration versus percent inhibition.

HCT116 cells = assay: Tumor cell proliferation (HCT116 proliferation assay); type: cell-based; conditions: Homo sapiens, HCT-116, 72 h, Alamar Blue
Protocol: as §1

H460 = assay: Tumor cell proliferation (H460 proliferation assay); type: cell-based; conditions: Homo sapiens, NCI-H460, 72 h, Alamar Blue
Protocol: as §1

[1] = tested on: histone 3 phosphorylation in colon carcinoma (HCT116); assay: p-Histone3 assay; type: cell-based; conditions: Homo sapiens, HCT-116, 24 h, HCT116, 24 h treatment
Protocol: Compounds were assayed for the inhibition of histone 3 phosphorylation in colon carcinoma (HCT116). Briefly, 20,000 cells/well were seeded in a 96-well black-walled, poly-d-lysine plates in RPMI+10% FBS and incubated at 37° C. in 5% CO2 overnight. The following day, the cells were treated with compounds for 24 hours at 37° C. Following compound treatment; plates were centrifuged at 1000 rpm for 2 minutes and washed twice with 100 μl of cold sterile TBS. Cells were then fixed with cold 3.7% formaldehyde in TBS (4° C. for 1 hour) and then permeabolized with 0.1% Triton-X-100 in TBS (room temperature for 30 minutes). Plates were then washed with of 0.25% BSA-TBS and blocked with BSA solution for 1 hour at room temperature while shaking. The supernatant was removed and replaced with diluted primary antibody (anti-phospho-histone 3, serine 10, Cell Signaling) at 1:250 in 0.25% BSA-TBS and incubated overnight at 4° C. The plates were washed and treated with diluted secondary antibody (anti-rabbit Eu-labeled) at 1:10000 in 0.25% BSA-TBS (room temperature for 1 hour). The antibody solution was removed from each well and washed eight times. The wash buffer was replaced with 50 μl pre-warmed enhancement solution and mixed on the orbital shaker for 10 minutes. Fluorescence was detected with a Victor V Fluorescence Detector. The data are expressed as percent inhibition: % inhibition=100−((Signal with inhibitor−background)/(Signal without inhibitor−background))−100.

[2] = lower bound of the bin 'greater than 500 nM but less than 3 μM'
[3] = upper bound of the bin 'greater than 500 nM but less than 3 μM'
[4] = lower bound of the bin 'greater than 500 nM but less than 4 μM'
[5] = upper bound of the bin 'greater than 500 nM but less than 4 μM'

T1 sequence (P11362 22-822): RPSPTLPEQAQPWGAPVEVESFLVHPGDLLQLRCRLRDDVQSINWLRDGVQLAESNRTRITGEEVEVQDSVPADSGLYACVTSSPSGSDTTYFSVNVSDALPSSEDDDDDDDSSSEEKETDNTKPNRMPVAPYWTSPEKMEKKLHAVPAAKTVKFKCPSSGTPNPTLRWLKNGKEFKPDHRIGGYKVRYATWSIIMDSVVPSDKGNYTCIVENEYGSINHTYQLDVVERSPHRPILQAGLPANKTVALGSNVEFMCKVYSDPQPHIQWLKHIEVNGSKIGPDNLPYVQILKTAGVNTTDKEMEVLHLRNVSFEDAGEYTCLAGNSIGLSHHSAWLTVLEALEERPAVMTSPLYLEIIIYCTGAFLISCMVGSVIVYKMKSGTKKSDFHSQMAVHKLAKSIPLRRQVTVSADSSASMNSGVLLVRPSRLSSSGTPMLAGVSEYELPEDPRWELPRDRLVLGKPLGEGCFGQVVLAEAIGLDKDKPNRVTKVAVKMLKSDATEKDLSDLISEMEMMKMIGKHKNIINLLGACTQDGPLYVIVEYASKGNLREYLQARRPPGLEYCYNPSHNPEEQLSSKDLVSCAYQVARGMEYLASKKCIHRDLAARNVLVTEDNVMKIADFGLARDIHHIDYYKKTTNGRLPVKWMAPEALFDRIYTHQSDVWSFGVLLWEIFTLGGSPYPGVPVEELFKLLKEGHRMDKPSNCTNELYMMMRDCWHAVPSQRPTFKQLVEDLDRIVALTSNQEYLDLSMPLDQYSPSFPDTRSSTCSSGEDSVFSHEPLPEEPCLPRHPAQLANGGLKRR

Row | IC50 (FGFR-1) | IC50 (MDA-MB-231 cells; [2]) | IC50 (MDA-MB-231 cells; [3]) | IC50 (HCT116 cells; [4]) | IC50 (HCT116 cells; [5]) | IC50 (H460; [4]) | IC50 (H460; [5]) | IC50 ([1]; bounds given in μM) | IC50 ([1]; lower bound of the bin 'greater than 500 nM but less than 5 μM') | SMILES
1 | < 10 nM | > 500 nM | < 3000 nM | > 500 nM | < 4000 nM | > 500 nM | < 4000 nM | – | – | Nc1ncnn2c(CN3CCOCC3)cc(-c3ccc(NC(=O)Nc4cc(C(F)(F)F)ccn4)cc3)c12 [Example 3, N-{4-[4-amino-7-(morpholin-4-ylmethyl)pyrrolo[2,1-f][1,2,4]triazin-5-yl]phenyl}-N′-[4-(trifluoromethyl)pyridin-2-yl]urea]
2 | < 10 nM | > 500 nM | < 3000 nM | > 500 nM | < 4000 nM | – | – | < 5 µM | > 0.5 µM | Nc1ncnn2c(CN3CCOCC3)cc(-c3ccc(NC(=O)Nc4cc(C(F)(F)F)ccc4F)cc3)c12 [Example 4, N-{4-[4-amino-7-(morpholin-4-ylmethyl)-pyrrolo[2,1-f][1,2,4]triazin-5-yl]phenyl}-N′-[2-fluoro-5-(trifluoromethyl)phenyl]urea]
3 | – | > 500 nM | < 3000 nM | > 500 nM | < 4000 nM | > 500 nM | < 4000 nM | – | – | Nc1ncnn2c(CN3CCOCC3)cc(-c3ccc(NC(=O)Nc4cccc(C(F)(F)F)c4)cc3)c12 [Example 5, N-{4-[4-amino-7-(morpholin-4-ylmethyl)-pyrrolo[2,1-f][1,2,4]triazin-5-yl]phenyl}-N′-[3-(trifluoromethyl)phenyl]urea]
4 | < 10 nM | > 500 nM | < 3000 nM | > 500 nM | < 4000 nM | > 500 nM | < 4000 nM | – | – | Nc1ncnn2c(CN3CCOCC3)cc(-c3ccc(NC(=O)Nc4ccc(F)c(C(F)(F)F)c4)cc3)c12 [Example 6, N-{4-[4-amino-7-(morpholin-4-ylmethyl)-pyrrolo[2,1-f][1,2,4]triazin-5-yl]phenyl}-N′-[4-fluoro-3-(trifluoromethyl)phenyl]urea]
